Laboratory results from paper PMC6874179, “Development of Macrocycle Kinase Inhibitors for ALK2 Using Fibrodysplasia Ossificans Progressiva‐Derived Endothelial Cells” (JBMR Plus, 2019).

Key:
ACVR2B = target: T1, ACVR2B (Homo sapiens, UniProt Q13705); experiment: DiscoverX Kd determination; type: binding
T1 construct: T7 phage fusion (or DNA tag for qPCR if made in HEK-293); purchased DiscoverX; host or cells: E. coli (T7 phage) or HEK-293
Protocol: (§1) DiscoverX Kd determination: For most assays, kinase-tagged T7 phage strains were prepared in an E. coli host derived from the BL21 strain. E. coli were grown to log-phase and infected with T7 phage and incubated with shaking at 32°C until lysis. The lysates were centrifuged and filtered to remove cell debris. The remaining kinases were produced in HEK-293 cells and subsequently tagged with DNA for qPCR detection. Streptavidin-coated magnetic beads were treated with biotinylated small molecule ligands for 30 minutes at room temperature to generate affinity resins for kinase assays. The liganded beads were blocked with excess biotin and washed with blocking buffer (SeaBlock (Pierce), 1% BSA, 0.05% Tween 20, 1 mM DTT) to remove unbound ligand and to reduce non-specific binding. […] Test compounds were prepared as 111X stocks in 100% DMSO. Kds were determined using an 11-point 3-fold compound dilution series with three DMSO control points. […] The compounds were then diluted directly into the assays such that the final concentration of DMSO was 0.9%. All reactions performed in polypropylene 384-well plate. Each was a final volume of 0.02 ml. […] The kinase concentration in the eluates was measured by qPCR. An 11-point 3-fold serial dilution of each test compound was prepared in 100% DMSO at 100x final test concentration and subsequently diluted to 1x in the assay (final DMSO concentration = 1%). Most Kds were determined using a compound top concentration = 30.000 nM. […] Binding constants (Kds) were calculated with a standard dose-response curve using the Hill equation: Response = Background + Signal – Background 1 + (KdHill Slope / DoseHill Slope). The Hill Slope was set to -1. Curves were fitted using a non-linear least square fit with the Levenberg-Marquardt algorithm.

ACVR2A = target: T2, ACVR2A (Homo sapiens, UniProt P27037); experiment: DiscoverX Kd determination; type: binding
T2 construct: T7 phage fusion (or DNA tag for qPCR if made in HEK-293); purchased DiscoverX; host or cells: E. coli (T7 phage) or HEK-293
T2 sequence (P27037 20-513): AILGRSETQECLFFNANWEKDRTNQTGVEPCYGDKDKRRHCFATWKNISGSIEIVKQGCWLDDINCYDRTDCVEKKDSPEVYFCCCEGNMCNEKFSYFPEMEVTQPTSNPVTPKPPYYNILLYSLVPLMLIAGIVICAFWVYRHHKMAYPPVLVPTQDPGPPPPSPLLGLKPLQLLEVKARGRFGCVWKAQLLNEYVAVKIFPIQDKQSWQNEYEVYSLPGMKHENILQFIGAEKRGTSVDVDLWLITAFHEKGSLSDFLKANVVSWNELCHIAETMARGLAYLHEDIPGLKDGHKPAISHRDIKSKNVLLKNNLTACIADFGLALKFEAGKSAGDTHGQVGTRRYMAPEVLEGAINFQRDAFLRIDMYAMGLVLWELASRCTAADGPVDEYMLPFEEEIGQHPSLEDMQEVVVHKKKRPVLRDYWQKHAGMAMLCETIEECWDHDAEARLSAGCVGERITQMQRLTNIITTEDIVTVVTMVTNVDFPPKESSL
Protocol: as §1

[1] = Microsomal incubations, mLM; type: in vitro ADME; conditions: mouse, liver microsomes, pH 7.4; microsomes 0.5 mg/ml, 0.5 μM compound; read-out: Metabolic clearance mLM
[2] = Microsomal incubations, rLM; type: in vitro ADME; conditions: rat, liver microsomes, pH 7.4; microsomes 0.5 mg/ml, 0.5 μM compound; read-out: Metabolic clearance rLM
FOP ECFCs [3] = experiment: Osteogenic differentiation (mineralization) of FOP ECFCs; type: cell-based, human; conditions: osteogenic conditions, Alizarin Red; for Effect on activin A-induced osteogenic differentiation: activin A 50 ng/mL; for Effect on BMP-6-induced osteogenic differentiation: BMP-6 50 ng/mL
Protocol: For mineralization assays, 5 × 10^4 ECs were seeded into 48‐well plates and incubated in osteogenic medium containing 10^−8M/L dexamethasone, 0.2mM/L ascorbic acid, and 10mM/L β‐glycerolphosphate in the presence of BMP/ TGF‐β ligands for 28 days. The medium was refreshed every 4 days. Afterwards, cells were washed twice with PBS and fixed with 3.7% formaldehyde for 5 min. Next, cells were washed twice with distilled water; measurement of calcium deposition was performed by Alizarin Red solution (ARS) staining, as previously described.16 Precipitates, originated from three independent ARS assays, were dissolved using 10% cetylpyridinium chloride, and absorbance was measured at 570 nm. Representative pictures were obtained using a Leica DMIL LED microscope (Leica, Wetzlar, Germany) with 10× magnification.
(§2) Cells were incubated for 21 days in chondrogenic medium containing BMP‐6 or activin A (50 ng/mL) and LDN‐193189, OD36, or OD52 at 0.5μM, prior to Alcian Blue staining. (B) Quantification of Fig. 6 A by absorbance, after solubilization with guanidine hydrochloride. (C) Chondrogenic gene expression analysis of collagen 2 (Col2), Sox9, Matrix metalloproteinase 13 (Mmp13), and collagen X (Col X) in ATDC5 cells corresponding to (A). (D) Western blot of a representative clone of FOP endothelial colony‐forming cells (ECFCs) incubated with LDN‐193189, OD36, or OD52 (0.5μM) prior to stimulation with BMP‐6 (50 ng/mL) or activin A (50 ng/mL). (E) Expression of the BMP target genes ID1 and ID3 by qPCR in FOP ECFCs stimulated with BMP‐6 (50 ng/mL) or activin A (50 ng/mL) in the presence of the indicated compounds at 0.5μM. (F) Alizarin Red solution staining on a representative clone of FOP ECFCs incubated under osteogenic conditions with BMP‐6 (50 ng/mL) or activin A (50 ng/mL) and the indicated compounds. (G) Quantification of Fig. 6 F by absorbance, after solubilization with cetylpyridinium. (H) Osteogenic genes Collagen 1 alpha 1 (Col1a1), Runx2, and osterix (Osx) expression in a representative clone of FOP ECFCs incubated under osteogenic conditions with BMP‐6 (50 ng/mL) or activin A (50 ng/mL) and LDN‐193189, OD36, or OD52 (0.5 μM). *p < 0.05, **p < 0.01, ***p < 0.001.

Chromlog D = type: physicochemical
Description: Supplement JBM4-3-na-s005.docx, table 3: Table S3. Solubility and metabolic clearance of selected macrocyclic inhibitors. | column: Chromlog D

FOP ECFCs [4] = experiment: Smad1/5 activation and ID-1/ID-3 expression in FOP ECFCs; type: cell-based, human; conditions: compound 0.5μM; for Effect on activin A-induced activation of Smad1/5 and gene targets ID-1 and ID-3: activin A 50 ng/mL; for Effect on BMP-6-induced downstream signaling: BMP-6 50 ng/mL
Protocol: Total RNA extraction was performed using NucleoSpin RNA II (Machery Nagel, Düren, Germany). There were 500 ng of RNA retro‐transcribed using RevertAid First Strand cDNA Synthesis Kits (Fisher Scientific, Landsmeer, The Netherlands), and real‐time reverse transcription‐PCR experiments were performed using SYBR Green (Bio‐Rad, Veenendaal, The Netherlands) and a Bio‐Rad CFX Connect device. A list of the oligonucleotides used can be found as online supplemental data.
as §2
Cells were seeded into 6-well plates and cultured till they reached confluence. Next, cells were stimulated as indicated and then washed with cold PBS. Lysates were prepared using 2x Sample buffer (10% SDS, 62.5 mM Tris-HCl pH 6.8, 0.002 % Bromophenol Blue, 0.7135 M (5%) β-mercaptoethanol, 10 % glycerol) and boiled for 5 minutes before loading. Electrophoresis was performed in 10% SDS/polyacrylamide gels. Separated proteins were transferred to nitrocellulose membranes (0.5 A at 100 V; in ice) for 1 hour. Blots were blocked in Tris-Buffered Saline solution containing 0.1% Tween 20 and 5% non-fat dry milk overnight at 4 °C, and immune-detection of specific proteins was carried out with primary antibodies (see above) followed by horseradish peroxidase-conjugated anti-mouse or anti-rabbit (GE Healthcare, Eindhoven, The Netherlands) secondary antibodies using an ECL system (Fisher Scientific, Landsmeer, The Netherlands).

T1 sequence (Q13705 19-512): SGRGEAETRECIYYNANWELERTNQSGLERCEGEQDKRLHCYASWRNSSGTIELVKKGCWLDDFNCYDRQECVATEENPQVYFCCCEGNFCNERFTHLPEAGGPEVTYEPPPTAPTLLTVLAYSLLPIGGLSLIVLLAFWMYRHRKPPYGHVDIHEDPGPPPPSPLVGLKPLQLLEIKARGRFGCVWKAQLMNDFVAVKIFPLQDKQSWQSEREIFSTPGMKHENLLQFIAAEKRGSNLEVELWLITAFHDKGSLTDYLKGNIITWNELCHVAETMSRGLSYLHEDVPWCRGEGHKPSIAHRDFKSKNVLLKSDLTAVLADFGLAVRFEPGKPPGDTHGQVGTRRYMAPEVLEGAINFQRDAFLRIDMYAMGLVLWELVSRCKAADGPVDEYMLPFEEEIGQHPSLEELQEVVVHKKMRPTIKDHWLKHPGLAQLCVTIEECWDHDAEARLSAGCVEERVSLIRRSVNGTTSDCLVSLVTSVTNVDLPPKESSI

| SMILES | Kd (ACVR2B) | Kd (ACVR2A) | microsomal CLint at 0.5 μM [1] | microsomal CLint at 0.5 μM [2] | Effect on activin A-induced osteogenic differentiation (FOP ECFCs [3]) | chromatographic logD (Chromlog D) | Effect on activin A-induced activation of Smad1/5 and gene targets ID-1 and ID-3 (FOP ECFCs [4]) | Effect on BMP-6-induced osteogenic differentiation (FOP ECFCs [3]) | Effect on BMP-6-induced downstream signaling (FOP ECFCs [4]) |
| --- | --- | --- | --- | --- | --- | --- | --- | --- | --- |
| c1ccc2c(-c3cnn4cc(-c5ccc(N6CCNCC6)cc5)cnc34)ccnc2c1 [LDN-193189, reference compound] | 11 nM | 12 nM | 95 µL/min/mg | 185 µL/min/mg | inhibited | 2.7 | inhibited |  |  |
| Clc1cc2cc(c1)-c1cnn3ccc(nc13)NCCOCCO2 [OD36] | 90 nM | 3000 nM | 207 µL/min/mg | 74 µL/min/mg | efficiently blocked | 5.4 | completely prevented | modest effect | less effective |
| Cc1cc2cc(c1)-c1cnn3ccc(nc13)NCCNC(=O)CCN(C)C2 [OD52] | 220 nM | 590 nM | 84 µL/min/mg | 32 µL/min/mg | efficiently blocked | 3.9 | completely prevented | modest effect | less effective |
